{
  "source": "patent US10774064B2",
  "about": "(Cadent Therapeutics, Inc., priority 2016, dated 2020)",
  "data": [
    {"target": "T1, small-conductance Ca2+-activated K+ channels (SK channels, subtype 2) (Homo sapiens, UniProt Q9H2S1)", "T1 construct": "expressed in transfected cells; host or cells: HEK293", "test": "whole-cell patch-clamp of ionic current through SK2 channels in HEK293 cells (SC100)", "type": "cell-based", "details": "whole-cell patch-clamp, HEK293 cells expressing SK2 channels; concentration that increases the basal current by 100%", "summary_of_the_method": "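Whole-cell patch-clamp recording of current in HEK293 cells expressing SK2 channels. SC100 is the compound concentration that increases basal current by 100%.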", "values": [
      {"smiles": "Cc1cc(NC2CCC(F)(F)CC2)nc(-n2ccc(OC(C)C)n2)n1", "note": "[IN11133-094-P1, N-(4,4-difluorocyclohexyl)-2-(3-isopropoxy-1H-pyrazol-1-yl)-6-methylpyrimidin-4-amine]", "SC100 (μM)": "+ (+ means >1 uM)"},
      {"smiles": "OCc1cc(NC2CCC(F)(F)CC2)nc(-n2ccc(C(F)(F)F)n2)c1", "note": "[IN11133-097-P1, (2-((4,4-difluorocyclohexyl)amino)-6-(3-(trifluoromethyl)-1H-pyrazol-1-yl)pyridin-4-yl) methanol]", "SC100 (μM)": "++ (++ means 200 nM-1000 nM)"},
      {"smiles": "COc1cc(NC2CCCSC2)nc(-c2nc(C)cs2)n1", "note": "(stereo not drawn) [IN11137-018-P1]", "SC100 (μM)": "+ (+ means >1 uM)"},
      {"smiles": "Cc1cc(NC2CCC(F)(F)CC2)nc(-c2cccc(C)n2)c1", "note": "[IN11137-041-P1, N-(4,4-difluorocyclohexyl)-4,6′-dimethyl-[2,2′-bipyridin]-6-amine]", "SC100 (μM)": "+ (+ means >1 uM)"},
      {"smiles": "CCc1cc(NC2CCC(F)(F)CC2)nc(-n2ccc(C3CC3)n2)n1", "note": "[IN11137-072-P1, 2-(3-cyclopropyl-1H-pyrazol-1-yl)-N-(4,4-difluorocyclohexyl)-6-ethylpyrimidin-4-amine]", "SC100 (μM)": "++ (++ means 200 nM-1000 nM)"},
      {"smiles": "OCc1cc(NC2CCC(F)(F)CC2)nc(-n2ccc(C3CC3)n2)n1", "note": "[IN11137-074-P1, (2-(3-cyclopropyl-1H-pyrazol-1-yl)-6-((4,4-difluorocyclohexyl)amino)pyrimidin-4-yl) methanol]", "SC100 (μM)": "++ (++ means 200 nM-1000 nM)"},
      {"smiles": "NC(=O)OCc1cc(N(C(N)=O)C2CCC(F)(F)CC2)nc(-n2ccc(C3CC3)n2)n1", "note": "[IN11137-079-P1, (2-(3-cyclopropyl-1H-pyrazol-1-yl)-6-(1-(4,4-difluorocyclohexyl)ureido)pyrimidin-4-yl)methyl carbamate]", "SC100 (μM)": "+ (+ means >1 uM)"},
      {"smiles": "Cc1cc(NC2CCC(F)(F)CC2)nc(-n2[nH]c(=O)cc2N)n1", "note": "[IN11140-007-P1, 5-amino-1-(4-((4,4-difluorocyclohexyl)amino)-6-methylpyrimidin-2-yl)-1,2-dihydro-3H-pyrazol-3-one]", "SC100 (μM)": "+ (+ means >1 uM)"},
      {"smiles": "Cc1csc(-c2nc(N[C@@H]3CCCC[C@H]3O)cc(N3CCOCC3)n2)n1", "note": "[IN11140-058-P1]", "SC100 (μM)": "+ (+ means >1 uM)"},
      {"smiles": "Cc1ccn(-c2nc(NC3CCCCC3(F)F)cc(N3CCOCC3)n2)n1", "note": "(stereo not drawn) [IN11140-062-P1]", "SC100 (μM)": "+ (+ means >1 uM)"},
      {"smiles": "COc1cc(NC2CCCCC2(F)F)nc(-c2nc(C)cs2)n1", "note": "(stereo not drawn) [IN11140-063-P1]", "SC100 (μM)": "+ (+ means >1 uM)"},
      {"smiles": "Cc1csc(-c2nc(NC3CCCCC3=O)cc(N3CCOCC3)n2)n1", "note": "(stereo not drawn) [IN11140-065-P1, 2-((2-(4-methylthiazol-2-yl)-6-morpholinopyrimidin-4-yl)amino)cyclohexan-1-one]", "SC100 (μM)": "+ (+ means >1 uM)"},
      {"smiles": "Cc1csc(-c2nc(NC3CCCCC3(F)F)cc(N3CCOCC3)n2)n1", "note": "(stereo not drawn) [IN11140-066-P1]", "SC100 (μM)": "+ (+ means >1 uM)"},
      {"smiles": "CC(=O)c1cc(NC2CCCCC2(F)F)nc(-c2nc(C)cs2)n1", "note": "(stereo not drawn) [IN11140-081-P1, 1-(6-((2,2-difluorocyclohexyl)amino)-2-(4-methylthiazol-2-yl)pyrimidin-4-yl) ethan-1-one]", "SC100 (μM)": "+ (+ means >1 uM)"},
      {"smiles": "Cc1csc(-c2nc(NC3CCCCC3(F)F)cc(C(C)O)n2)n1", "note": "(stereo not drawn) [IN11140-083-P1, 1-(6-((2,2-difluorocyclohexyl)amino)-2-(4-methylthiazol-2-yl)pyrimidin-4-yl) ethan-1-ol]", "SC100 (μM)": "+ (+ means >1 uM)"},
      {"smiles": "Cc1csc(-c2nc(N[C@@H]3CCCC[C@H]3F)cc(N3CCOCC3)n2)n1", "note": "[IN11140-086-P1]", "SC100 (μM)": "+ (+ means >1 uM)"},
      {"smiles": "Cc1csc(-c2nc(NC3CCCCC3(F)F)cc(C(C)F)n2)n1", "note": "(stereo not drawn) [IN11140-089-P1, N-(2,2-difluorocyclohexyl)-6-(1-fluoroethyl)-2-(4-methylthiazol-2-yl)pyrimidin-4-amine]", "SC100 (μM)": "+ (+ means >1 uM)"},
      {"smiles": "COc1cc(NC2CCCCC2OC)nc(-c2nc(C)cs2)n1", "note": "(stereo not drawn) [IN11140-090-P1, 6-methoxy-N-(2-methoxycyclohexyl)-2-(4-methylthiazol-2-yl)pyrimidin-4-amine]", "SC100 (μM)": "+ (+ means >1 uM)"},
      {"smiles": "COc1cc(N[C@@H]2CCCC[C@H]2F)nc(-c2nc(C)cs2)n1", "note": "[IN11140-096-P1]", "SC100 (μM)": "+ (+ means >1 uM)"},
      {"smiles": "COC(C)c1cc(NC2CCCCC2(F)F)nc(-c2nc(C)cs2)n1", "note": "(stereo not drawn) [IN11140-099-P1, N-(2,2-difluorocyclohexyl)-6-(1-methoxyethyl)-2-(4-methylthiazol-2-yl)pyrimidin-4-amine]", "SC100 (μM)": "+ (+ means >1 uM)"},
      {"smiles": "COc1cc(NC2CCC(F)(F)CC2)nc(-c2nc(C)cs2)c1", "note": "[IN11146-013-P1]", "SC100 (μM)": "++ (++ means 200 nM-1000 nM)"},
      {"smiles": "Cc1cc(C)n(-c2nc(N[C@@H]3CCCC[C@H]3F)cc(N3CCOCC3)n2)n1", "note": "[IN11146-016-P1]", "SC100 (μM)": "+ (+ means >1 uM)"},
      {"smiles": "Cc1csc(-c2nc(NC3CCC(F)(F)CC3)cc(OC3CC3)n2)n1", "note": "[IN11146-033-P1, 6-cyclopropoxy-N-(4,4-difluorocyclohexyl)-2-(4-methylthiazol-2-yl)pyrimidin-4-amine]", "SC100 (μM)": "+ (+ means >1 uM)"},
      {"smiles": "Cc1cc(C)n(-c2cc(CO)cc(NC3CC(F)(F)C3)n2)n1", "note": "[IN11146-039-P1, (2-((3,3-difluorocyclobutyl)amino)-6-(3,5-dimethyl-1H-pyrazol-1-yl)pyridin-4-yl) methanol]", "SC100 (μM)": "+ (+ means >1 uM)"},
      {"smiles": "Cc1ccn(-c2cc(OC3CCS(=O)(=O)CC3)cc(NC3CCC(F)(F)CC3)n2)n1", "note": "[IN11146-089-P1, 4-((2-((4,4-difluorocyclohexyl)amino)-6-(3-methyl-1H-pyrazol-1-yl)pyridin-4-yl)oxy)tetrahydro-2H-thiopyran 1,1-dioxide]", "SC100 (μM)": "++ (++ means 200 nM-1000 nM)"},
      {"smiles": "CSc1cc(NC2CCC(F)(F)CC2)nc(-c2nc(C)cs2)c1", "note": "[IN11147-026-P1, N-(4,4-difluorocyclohexyl)-6-(4-methylthiazol-2-yl)-4-(methylthio)pyridin-2-amine]", "SC100 (μM)": "+++ (+++ means <200 nM)"},
      {"smiles": "Cc1csc(-c2cc([S+](C)[O-])cc(NC3CCC(F)(F)CC3)n2)n1", "note": "(stereo not drawn) [IN11147-031-P1, N-(4,4-difluorocyclohexyl)-4-(methylsulfinyl)-6-(4-methylthiazol-2-yl)pyridin-2-amine]", "SC100 (μM)": "++ (++ means 200 nM-1000 nM)"},
      {"smiles": "Cc1csc(-c2cc(S(C)(=O)=O)cc(NC3CCC(F)(F)CC3)n2)n1", "note": "[IN11147-036-P1, N-(4,4-difluorocyclohexyl)-4-(methylsulfonyl)-6-(4-methylthiazol-2-yl)pyridin-2-amine]", "SC100 (μM)": "+++ (+++ means <200 nM)"},
      {"smiles": "COc1cc(NC2CCC(F)(F)CC2)nc(-c2nc(C3CC3)cs2)n1", "note": "[IN11147-054-P1, 2-(4-cyclopropylthiazol-2-yl)-N-(4,4-difluorocyclohexyl)-6-methoxypyrimidin-4-amine]", "SC100 (μM)": "++ (++ means 200 nM-1000 nM)"},
      {"smiles": "Cc1cc(NC2CCC(F)(F)CC2)nc(-c2nc(C3CC3)cs2)n1", "note": "[IN11147-062-P1, 2-(4-cyclopropylthiazol-2-yl)-N-(4,4-difluorocyclohexyl)-6-methylpyrimidin-4-amine]", "SC100 (μM)": "+ (+ means >1 uM)"},
      {"smiles": "CC(O)c1cc(NC2CCC(F)(F)CC2)nc(-c2nc(C3CC3)cs2)n1", "note": "(stereo not drawn) [IN11147-066-P1, 1-(2-(4-cyclopropylthiazol-2-yl)-6-((4,4-difluorocyclohexyl)amino)pyrimidin-4-yl) ethan-1-ol]", "SC100 (μM)": "++ (++ means 200 nM-1000 nM)"},
      {"smiles": "CC(=O)c1cc(NC2CCC(F)(F)CC2)nc(-c2nc(C3CC3)cs2)n1", "note": "[IN11147-071-P1, 1-(2-(4-cyclopropylthiazol-2-yl)-6-((4,4-difluorocyclohexyl)amino)pyrimidin-4-yl) ethan-1-one]", "SC100 (μM)": "+ (+ means >1 uM)"},
      {"smiles": "COCc1cc(NC2CCC(F)(F)CC2)nc(-c2nc(C3CC3)cs2)n1", "note": "[IN11147-077-P1, 2-(4-cyclopropylthiazol-2-yl)-N-(4,4-difluorocyclohexyl)-6-(methoxymethyl)pyrimidin-4-amine]", "SC100 (μM)": "++ (++ means 200 nM-1000 nM)"},
      {"smiles": "OCc1cc(NC2CCC(F)(F)CC2)nc(-c2nc(C3CC3)cs2)n1", "note": "[IN11147-082-P1, (2-(4-cyclopropylthiazol-2-yl)-6-((4,4-difluorocyclohexyl)amino)pyrimidin-4-yl) methanol]", "SC100 (μM)": "++ (++ means 200 nM-1000 nM)"},
      {"smiles": "COc1cnc(-c2nc(C3CC3)cs2)nc1NC1CCC(F)(F)CC1", "note": "[IN11147-096-P1, 2-(4-cyclopropylthiazol-2-yl)-N-(4,4-difluorocyclohexyl)-5-methoxypyrimidin-4-amine]", "SC100 (μM)": "+++ (+++ means <200 nM)"},
      {"smiles": "FC1(F)CCC(Nc2cc(OCc3cnco3)nc(-n3ccc(C4CC4)n3)n2)CC1", "note": "[IN11166-020-P1]", "SC100 (μM)": "++ (++ means 200 nM-1000 nM)"},
      {"smiles": "FC1(F)CCC(Nc2cc(C3CC3)nc(-n3ccc(C4CC4)n3)n2)CC1", "note": "[IN11166-036-P1, 6-cyclopropyl-2-(3-cyclopropyl-1H-pyrazol-1-yl)-N-(4,4-difluorocyclohexyl)pyrimidin-4-amine]", "SC100 (μM)": "++ (++ means 200 nM-1000 nM)"},
      {"smiles": "CC(=O)N1CC=C(c2cc(NC3CCC(F)(F)CC3)nc(-n3ccc(C4CC4)n3)n2)CC1", "note": "[IN11166-038-P1, 1-(4-(2-(3-cyclopropyl-1H-pyrazol-1-yl)-6-((4,4-difluorocyclohexyl)amino)pyrimidin-4-yl)-3,6-dihydropyridin-1(2H)-yl)ethan-1-one]", "SC100 (μM)": "+++ (+++ means <200 nM)"},
      {"smiles": "CC(=O)N1CCC(c2cc(NC3CCC(F)(F)CC3)nc(-n3ccc(C4CC4)n3)n2)CC1", "note": "[IN11166-042-P1, 1-(4-(2-(3-cyclopropyl-1H-pyrazol-1-yl)-6-((4,4-difluorocyclohexyl)amino)pyrimidin-4-yl)piperidin-1-yl)ethan-1-one]", "SC100 (μM)": "++ (++ means 200 nM-1000 nM)"},
      {"smiles": "CC(C)(C)c1ccn(-c2nc(NC3CCC(F)(F)CC3)cc(N3CCOCC3)n2)n1", "note": "[IN11177-025-P1, 2-(3-(tert-butyl)-1H-pyrazol-1-yl)-N-(4,4-difluorocyclohexyl)-6-morpholinopyrimidin-4-amine]", "SC100 (μM)": "+ (+ means >1 uM)"},
      {"smiles": "Cc1cc(NC2CCC(F)(F)CC2)nc(-n2ccc(C(C)(C)C)n2)n1", "note": "[IN11177-029-P1]", "SC100 (μM)": "++ (++ means 200 nM-1000 nM)"},
      {"smiles": "Cc1ccn(-c2cc(OCc3ncco3)cc(NC3CCC(F)(F)CC3)n2)n1", "note": "[IN11177-043-P1]", "SC100 (μM)": "++ (++ means 200 nM-1000 nM)"}
    ]}
  ]
}
